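Five compound concentrations were applied to cells in 96-well plates for 48 hours; endpoints were derived by simple linear interpolation of the resulting dose-response curve. The concentration for 50% growth inhibition is given as GI50.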 The source made the active and inactive calls. Rule as the data show it: active = GI50 up to about 1.1 µM and inactive = higher.
Experiments:
Assay in all cases: NCI tumour cell line growth inhibition, 48 h
786-0 = tested on: 786-0
A498 = tested on: A498
ACHN = tested on: ACHN
CAKI-1 = tested on: CAKI-1
HL-60 = tested on: HL-60
M14 = tested on: M14
MCF7 = tested on: MCF7
MDA-N = tested on: MDA-N
NCI-H522 = tested on: NCI-H522
NCI/ADR-RES = tested on: NCI/ADR-RES
OVCAR-3 = tested on: OVCAR-3
OVCAR-5 = tested on: OVCAR-5
RPMI-8226 = tested on: RPMI-8226
SK-MEL-28 = tested on: SK-MEL-28
SK-MEL-2 = tested on: SK-MEL-2
SK-OV-3 = tested on: SK-OV-3
T47D = tested on: T47D
TK-10 = tested on: TK-10
HOP-92 = tested on: HOP-92
UO-31 = tested on: UO-31

Row | Compound | GI50 (786-0) | GI50 (A498) | GI50 (ACHN) | GI50 (CAKI-1) | GI50 (HL-60) | GI50 (M14) | GI50 (MCF7) | GI50 (MDA-N) | GI50 (NCI-H522) | GI50 (NCI/ADR-RES) | GI50 (OVCAR-3) | GI50 (OVCAR-5) | GI50 (RPMI-8226) | GI50 (SK-MEL-28) | GI50 (SK-MEL-2) | GI50 (SK-OV-3) | GI50 (T47D) | GI50 (TK-10) | GI50 (HOP-92) | GI50 (UO-31)
1 | CCOP(=O)(/C=C/n1ccc(N)nc1=O)OCC | > 100 µM (inactive) | > 100 µM (inactive) | > 100 µM (inactive) | > 100 µM (inactive) | > 100 µM (inactive) | > 100 µM (inactive) | > 100 µM (inactive) | > 100 µM (inactive) | > 100 µM (inactive) | > 100 µM (inactive) | > 100 µM (inactive) | > 100 µM (inactive) | > 100 µM (inactive) | > 100 µM (inactive) | > 100 µM (inactive) | > 100 µM (inactive) | > 100 µM (inactive) | > 100 µM (inactive) |  | 
2 | Cc1cc(C)c2c(O)c(S(=O)(=O)c3ccc(Cl)cc3)c(=O)oc2c1 | 78.2 µM (inactive) | > 100 µM (inactive) |  | 72.6 µM (inactive) | 52.8 µM (inactive) | 34.3 µM (inactive) | 50.6 µM (inactive) | 79.1 µM (inactive) |  | 26.2 µM (inactive) | 40 µM (inactive) | 93.1 µM (inactive) | 60.1 µM (inactive) | 51.9 µM (inactive) | 32.7 µM (inactive) | 70.8 µM (inactive) | 99.8 µM (inactive) |  | 65.6 µM (inactive) | 50.8 µM (inactive)
3 | CC1CN=C(N(C)C(=O)Nc2ccc(Cl)c(Cl)c2)S1 (configuration not stated) | 35.6 µM (inactive) | 48.4 µM (inactive) | 11 µM (inactive) | 7.53 µM (inactive) | 22.5 µM (inactive) | 0.127 µM (active) | 19.3 µM (inactive) | 31 µM (inactive) |  | 14.4 µM (inactive) | 20.5 µM (inactive) | 15.2 µM (inactive) | 31.7 µM (inactive) | 16.6 µM (inactive) | 17.4 µM (inactive) | > 100 µM (inactive) | 19.3 µM (inactive) | 26.8 µM (inactive) | 4.76 µM (inactive) | 29.5 µM (inactive)
4 | CNC(=O)CC1NC(=O)c2csc(n2)-c2ccc(-c3nc(C4=NC(C(=O)N5CCCC5C(N)=O)CO4)cs3)nc2-c2csc(n2)-c2csc(n2)C(C(C)C)NC(=O)CNC(=O)c2csc(n2)C(C(C)C)NC(=O)c2nc1sc2C (configuration not stated) | 0.0214 µM (active) | 0.0923 µM (active) | 4.37 µM (inactive) | 0.436 µM (active) | > 25 µM (inactive) | 0.0123 µM (active) | > 25 µM (inactive) | > 25 µM (inactive) |  | 6.05 µM (inactive) | 0.00979 µM (active) | 0.0271 µM (active) | > 25 µM (inactive) | > 25 µM (inactive) | 0.0155 µM (active) | 0.0013 µM (active) | 0.0033 µM (active) | 0.0386 µM (active) | 0.968 µM (active) | 2.18 µM (inactive)
5 | CCOc1ccc2nc(NC(NC(=O)c3cccnc3)(C(F)(F)F)C(F)(F)F)sc2c1 | 26.5 µM (inactive) |  | 29.3 µM (inactive) | 38.3 µM (inactive) | 32.4 µM (inactive) | 34.1 µM (inactive) | 25.5 µM (inactive) | 15.6 µM (inactive) | 23.4 µM (inactive) | 25.8 µM (inactive) | 32.6 µM (inactive) | 25.6 µM (inactive) |  | 35.2 µM (inactive) | 38.5 µM (inactive) | 93.8 µM (inactive) | 21 µM (inactive) | 33.9 µM (inactive) | 20.5 µM (inactive) | 6.84 µM (inactive)
6 | O=C1OC(C2Cc3ccc4c(c3C2=O)CCCC4)c2ccccc21 (configuration not stated) | 50.8 µM (inactive) | 16.8 µM (inactive) | 44.6 µM (inactive) | 69.3 µM (inactive) | 71.3 µM (inactive) | 50.4 µM (inactive) | 33.9 µM (inactive) | 34.8 µM (inactive) | 48.4 µM (inactive) | 46 µM (inactive) | 34.3 µM (inactive) | > 100 µM (inactive) | 42.5 µM (inactive) | 52.5 µM (inactive) | 24.5 µM (inactive) | 73.6 µM (inactive) | 63 µM (inactive) | 73.5 µM (inactive) |  | 50 µM (inactive)
7 | O=c1cnn(C2OC(C(O)CO)C(O)C2O)c(=O)[nH]1 (configuration not stated) | > 100 µM (inactive) |  | > 100 µM (inactive) | > 100 µM (inactive) | > 100 µM (inactive) | > 100 µM (inactive) | > 100 µM (inactive) | > 100 µM (inactive) | > 100 µM (inactive) | > 100 µM (inactive) | > 100 µM (inactive) | > 100 µM (inactive) | > 100 µM (inactive) | > 100 µM (inactive) | > 100 µM (inactive) | > 100 µM (inactive) | > 100 µM (inactive) | > 100 µM (inactive) | > 100 µM (inactive) | > 100 µM (inactive)
8 | CC(O)C1(CNc2cc(Cl)nc(N)n2)CCC1 (configuration not stated) | > 100 µM (inactive) |  | > 100 µM (inactive) | > 100 µM (inactive) | > 100 µM (inactive) |  | > 100 µM (inactive) | > 100 µM (inactive) | > 100 µM (inactive) | > 100 µM (inactive) | > 100 µM (inactive) | > 100 µM (inactive) | > 100 µM (inactive) | > 100 µM (inactive) | > 100 µM (inactive) | > 100 µM (inactive) | 33.3 µM (inactive) | > 100 µM (inactive) | > 100 µM (inactive) | > 100 µM (inactive)
9 | CCN(CC)CCOCC1CCCN2CCCCC12 (configuration not stated) | > 100 µM (inactive) |  | > 100 µM (inactive) | > 100 µM (inactive) | > 100 µM (inactive) | > 100 µM (inactive) | > 100 µM (inactive) | > 100 µM (inactive) |  | > 100 µM (inactive) | > 100 µM (inactive) | > 100 µM (inactive) | > 100 µM (inactive) | > 100 µM (inactive) | > 100 µM (inactive) | > 100 µM (inactive) | > 100 µM (inactive) | > 100 µM (inactive) | > 100 µM (inactive) | > 100 µM (inactive)
10 | O=C(Nc1ccc(F)cc1)c1cc2ccc(O)cc2o/c1=N\c1cccc(F)c1 | 39.9 µM (inactive) | 43 µM (inactive) | 32.8 µM (inactive) | 32.7 µM (inactive) | 27.3 µM (inactive) |  | 32.8 µM (inactive) | 38.8 µM (inactive) | 16.4 µM (inactive) | 28.2 µM (inactive) | 38.3 µM (inactive) | > 100 µM (inactive) | 14.8 µM (inactive) | 45.7 µM (inactive) | 42.2 µM (inactive) | 51.6 µM (inactive) | 31.5 µM (inactive) |  |  | 
11 | CCSC1=CC(=O)c2nc3ccccc3c3ccnc1c23 | 3.04 µM (inactive) |  | 3.65 µM (inactive) | 3.82 µM (inactive) | 2.06 µM (inactive) | 2.38 µM (inactive) | 1.88 µM (inactive) | 1.95 µM (inactive) | 1.45 µM (inactive) | 2.62 µM (inactive) | 2.56 µM (inactive) | 3.85 µM (inactive) | 2.33 µM (inactive) | 10.1 µM (inactive) | 1.91 µM (inactive) | 49 µM (inactive) | 11.2 µM (inactive) | 12.1 µM (inactive) | 11.4 µM (inactive) | 5.22 µM (inactive)
12 | CC1=[N+]([O-])C2(CCCC2)N(O)C1(C)C | > 100 µM (inactive) |  | > 100 µM (inactive) | > 100 µM (inactive) | > 100 µM (inactive) | > 100 µM (inactive) | > 100 µM (inactive) | > 100 µM (inactive) |  | > 100 µM (inactive) | > 100 µM (inactive) | > 100 µM (inactive) | > 100 µM (inactive) | > 100 µM (inactive) | > 100 µM (inactive) | > 100 µM (inactive) | > 100 µM (inactive) | > 100 µM (inactive) | > 100 µM (inactive) | > 100 µM (inactive)
13 | CC(=O)O[C@H]1C[C@H]2[C@@H]([C@H](OC(C)=O)C[C@@H]3CC4(CC[C@@]32C)OOC2(CCCCC2)OO4)[C@@H]2CC[C@H]([C@H](C)CCC(N)=O)[C@@]12C | 1.81 µM (inactive) | 6.64 µM (inactive) | 1.63 µM (inactive) | 0.63 µM (active) | 1.69 µM (inactive) | 3.33 µM (inactive) | 2.61 µM (inactive) | 1.95 µM (inactive) | 0.55 µM (active) | 2.2 µM (inactive) | 1.54 µM (inactive) | 2.34 µM (inactive) | 0.726 µM (active) | 8.93 µM (inactive) | 1.78 µM (inactive) | 11.6 µM (inactive) | 1.63 µM (inactive) | 2.6 µM (inactive) |  | 
14 | COC(=O)[C@H](COC(=O)/C=C/c1ccc(OC(C)=O)c(OC(C)=O)c1)NC(=O)/C=C/c1ccc(OC(C)=O)c(OC(C)=O)c1 | 13.2 µM (inactive) | 39.3 µM (inactive) | 18 µM (inactive) | 14 µM (inactive) | > 100 µM (inactive) | 21.2 µM (inactive) | 38.4 µM (inactive) | 17.1 µM (inactive) |  | 33.7 µM (inactive) | 16.4 µM (inactive) | 23.4 µM (inactive) | > 100 µM (inactive) | 30.5 µM (inactive) | 18.5 µM (inactive) | 22.2 µM (inactive) | 2.81 µM (inactive) |  | 22.2 µM (inactive) | 
15 | COC(=O)c1ccc(/C=N/c2ccc(S(N)(=O)=O)cc2)cc1 | 57.1 µM (inactive) | > 100 µM (inactive) | 84.3 µM (inactive) | > 100 µM (inactive) | 97.1 µM (inactive) | 53.5 µM (inactive) | 41.8 µM (inactive) | 59.7 µM (inactive) |  | 58.5 µM (inactive) | 87.1 µM (inactive) | > 100 µM (inactive) | 30.9 µM (inactive) | > 100 µM (inactive) | 22 µM (inactive) | > 100 µM (inactive) | > 100 µM (inactive) | > 100 µM (inactive) | 65.5 µM (inactive) | 74.5 µM (inactive)

— ChEMBL document CHEMBL1201862, “PubChem BioAssay data set” (2004)
